Three compounds from US20160212997A1, “AGRICULTURAL CHEMICALS” (REDAG CROP PROTECTION LTD, priority 2013, published 2016) can be followed below.

Common to all, as to format: in vivo
Test [1] has as its system red spider mites, Tetranychus urticae. The experiment in a line: Potter tower spray on red spider mites, knockdown and mortality. The settings on record: Spider mites. From the text: (§1) The compounds were screened for insecticidal efficacy against aphids, Myzus persicae, Cabbage moth, Mamestra brassicae, diamond black moths, Plutella xylostella, red spider mites, Tetranychus urticae, whitefly, Trialeurodes vaporariorum, in terms of knockdown and mortality.
(§2) Myzus persicae, Cabbage moth, Mamestra brassicae, diamond back moths, Plutella xylostella, red spider mites, Tetranychus urticae, whitefly, Trialeurodes vaporariorum, were obtained from specified laboratory cultures. Mixed sex and age aphids and mites, moth larvae and whitefly scale infested leaves were used in the experiments. Environmental conditions were closely monitored and recorded and were within the optimal range of the target species.
(§3) The compounds were screened at a range of five concentrations, diluted in DMSO. Some of the compounds were screened against aphids, whitefly and red spider mites and other compounds were screened against cabbage moth, and diamond black moths. A carrier only and an untreated control will also be conducted. Treatments were applied directly onto the insects within Petri dishes, using a potter tower.
(§4) Twenty mites and ten aphids, scales and moth larvae were placed within a Petri dish, lined with a suitable leaf disc on a damp cotton wool pad. Scales were already on leaves. The Petri dishes were then sprayed using a potter tower. The number of knocked down and anthropods were assessed at 24 and 48 hours post treatment. Five replicates were be performed for each treatment, for each species.

A further test deals with aphids, Myzus persicae. The experiment in a line: Potter tower spray on aphids, knockdown and mortality. The note with it: for percentage control / pest or weed control at 0.003125 % strength / pest or weed control at 0.00625 % strength / pest or weed control at 0.0125 % strength / pest or weed control at 0.025 % strength / pest or weed control at 0.05 % strength: Aphids; for pest or weed control at 0.000125 % strength / pest or weed control at 0.00025 % strength / pest or weed control at 0.0005 % strength / pest or weed control at 0.001 % strength / pest or weed control at 0.002 % strength / pest or weed control at 0.003125 % strength / pest or weed control at 0.00625 % strength / pest or weed control at 0.0125 % strength / pest or weed control at 0.025 % strength / pest or weed control at 0.05 % strength: Myzus persicae, read-out: Average of % corrected affected; for pest or weed control at 0.003125 % strength: 0.003125 % w/v; for pest or weed control at 0.00625 % strength: 0.00625 % w/v; for pest or weed control at 0.0125 % strength: 0.0125 % w/v; for pest or weed control at 0.025 % strength: 0.025 % w/v; for pest or weed control at 0.05 % strength: 0.05 % w/v.
From the text: as §1, §2, §3, §4
(§5) For Tables 2, 4, 5 and 6, the compounds were diluted in DMSO containing 1% v/v Tween 20™. For Tables 2, 4, 5 and 6, the caterpillars were a mixture of Mamestra brassicae and Lacanobia oleracea.

Test [2] relates to caterpillars, a mixture of Mamestra brassicae and Lacanobia oleracea. Put plainly: Potter tower spray on caterpillars, knockdown and mortality. The note with it: read-out: Average of % corrected affected; for pest or weed control at 0.003125 % strength / pest or weed control at 0.00625 % strength / pest or weed control at 0.0125 % strength / pest or weed control at 0.025 % strength / pest or weed control at 0.05 % strength: Caterpillars; for pest or weed control at 0.003125 % strength: 0.003125 % w/v; for pest or weed control at 0.00625 % strength: 0.00625 % w/v; for pest or weed control at 0.0125 % strength: 0.0125 % w/v; for pest or weed control at 0.025 % strength: 0.025 % w/v; for pest or weed control at 0.05 % strength: 0.05 % w/v.
From the text: as §2, §3, §4, §5

[3] abbreviates: 24 h, 24 hours post application.
[4] abbreviates: 48 h, 48 hours post application.

Where two headings read alike, the source gives them in different places.

Take `O=C1C=C(N(Cc2ccc(Cl)nc2)CC(F)F)CO1` [Compound 1, 3-[(6-Chloro-3-pyridyl)methyl-(2,2-difluoroethyl)amino]-2H-furan-5-one, reference compound]: the percentage control entry in test [1] (25 g/ha, 24 h) is on record as “D (A percentage control of from 20 to 39 is indicated by the letter D)”; in test [1] (25 g/ha, 48 h), “D (A percentage control of from 20 to 39 is indicated by the letter D)”; in test [1] (50 g/ha, 24 h), “D (A percentage control of from 20 to 39 is indicated by the letter D)”; in test [1] (50 g/ha, 48 h), “D (A percentage control of from 20 to 39 is indicated by the letter D)”; in test [1] (100 g/ha, 24 h) it was “E (A percentage control of from 1 to 19 is indicated by the letter E)”; in test [1] (100 g/ha, 48 h), “D (A percentage control of from 20 to 39 is indicated by the letter D)”. Moreover, the percentage control result in test [1] (200 g/ha, 24 h) is recorded as “D (A percentage control of from 20 to 39 is indicated by the letter D)”; in test [1] (200 g/ha, 48 h), “D (A percentage control of from 20 to 39 is indicated by the letter D)”; in test [1] (400 g/ha, 24 h), “D (A percentage control of from 20 to 39 is indicated by the letter D)”; in test [1] (400 g/ha, 48 h) it was “C (A percentage control of from 40 to 59 is indicated by the letter C)”; with aphids, Myzus persicae (25 g/ha, 24 h), “E (A percentage control of from 1 to 19 is indicated by the letter E)”; in the test with aphids, Myzus persicae (25 g/ha, 48 h), “C (A percentage control of from 40 to 59 is indicated by the letter C)”. Moreover, the percentage control result in the test with aphids, Myzus persicae (50 g/ha, 24 h) is “D (A percentage control of from 20 to 39 is indicated by the letter D)”; with aphids, Myzus persicae (50 g/ha, 48 h), “A (A percentage control of from 80 to 100 is indicated by the letter A)”; with aphids, Myzus persicae (100 g/ha, 24 h), “D (A percentage control of from 20 to 39 is indicated by the letter D)”; in the test on aphids, Myzus persicae (100 g/ha, 48 h), “A (A percentage control of from 80 to 100 is indicated by the letter A)”; in the test on aphids, Myzus persicae (200 g/ha, 24 h) it was “C (A percentage control of from 40 to 59 is indicated by the letter C)”; in the test on aphids, Myzus persicae (200 g/ha, 48 h) it was “A (A percentage control of from 80 to 100 is indicated by the letter A)”. The percentage control result in the test with aphids, Myzus persicae (400 g/ha, 24 h) was “B (A percentage control of from 60 to 79 is indicated by the letter B)”; with aphids, Myzus persicae (400 g/ha, 48 h), “A (A percentage control of from 80 to 100 is indicated by the letter A)”.

With `O=C(CSc1ccc(C2=NOC(c3cc(Cl)cc(Cl)c3)(C(F)(F)F)C2)s1)NCC(F)(F)F` (stereo not drawn) [Compound 19, 2-[[5-[5-(3,5-dichlorophenyl)-5-(trifluoromethyl)-4H-isoxazol-3-yl]-2-thienyl]sulfanyl]-N-(2,2,2-trifluoroethyl)acetamide], in test [2] (24 h), the pest or weed control at 0.000125 % strength is 0%, the pest or weed control at 0.00025 % strength was 0%, the pest or weed control at 0.0005 % strength was 1 to 19% and the pest or weed control at 0.001 % strength lay in the range of 1 to 19%. Besides, the pest or weed control at 0.002 % strength in test [2] (24 h) lay within 1 to 19%. Also, in test [2] (48 h), the pest or weed control at 0.000125 % strength fell in the range of 1 to 19%, the pest or weed control at 0.00025 % strength was 1 to 19%, the pest or weed control at 0.0005 % strength lay within 1 to 19% and the pest or weed control at 0.001 % strength fell in the range of 1 to 19%. Further, the pest or weed control at 0.002 % strength in test [2] (48 h) lay within 1 to 19%. For the same compound, in the test on aphids, Myzus persicae (24 h), the pest or weed control at 0.000125 % strength was in the range of 20 to 39%, the pest or weed control at 0.00025 % strength lay in the range of 1 to 19%, the pest or weed control at 0.0005 % strength is 1 to 19% and the pest or weed control at 0.001 % strength was 20 to 39%. For the same compound, the pest or weed control at 0.002 % strength with aphids, Myzus persicae (24 h) lay in the range of 1 to 19%. Moreover, in the test on aphids, Myzus persicae (48 h), the pest or weed control at 0.000125 % strength was 40 to 59%, the pest or weed control at 0.00025 % strength fell in the range of 20 to 39%, the pest or weed control at 0.0005 % strength was 20 to 39% and the pest or weed control at 0.001 % strength lay in the range of 40 to 59%. For the same compound, the pest or weed control at 0.002 % strength in the test on aphids, Myzus persicae (48 h) lay in the range of 1 to 19%.

`O=C(Nc1ccc(-c2cccnc2)oc1=O)C1CC1` [Compound 25, N-[2-Oxo-6-(3-pyridyl)pyran-3-yl]cyclopropanecarboxamide, reference compound]: in test [2] (setting [3]), the pest or weed control at 0.003125 % strength turned out to be 0%, the pest or weed control at 0.00625 % strength is 1 to 19%, the pest or weed control at 0.0125 % strength is 1 to 19% and the pest or weed control at 0.025 % strength was 1 to 19%. Besides, in test [2] (setting [3]), the pest or weed control at 0.05 % strength is 1 to 19%. In test [2] (setting [4]), the pest or weed control at 0.003125 % strength was in the range of 1 to 19%, the pest or weed control at 0.00625 % strength is 1 to 19%, the pest or weed control at 0.0125 % strength fell in the range of 1 to 19% and the pest or weed control at 0.025 % strength was 20 to 39%. In addition, the pest or weed control at 0.05 % strength in test [2] (setting [4]) lay in the range of 1 to 19%. Moreover, in the test with aphids, Myzus persicae (setting [3]), the pest or weed control at 0.003125 % strength fell in the range of 1 to 19%, the pest or weed control at 0.00625 % strength fell in the range of 20 to 39%, the pest or weed control at 0.0125 % strength is 20 to 39% and the pest or weed control at 0.025 % strength lay within 40 to 59%. Also, the pest or weed control at 0.05 % strength with aphids, Myzus persicae (setting [3]) fell in the range of 1 to 19%. Besides, in the test with aphids, Myzus persicae (setting [4]), the pest or weed control at 0.003125 % strength is 1 to 19%, the pest or weed control at 0.00625 % strength lay in the range of 20 to 39%, the pest or weed control at 0.0125 % strength lay within 20 to 39% and the pest or weed control at 0.025 % strength fell in the range of 60 to 79%. Also, the pest or weed control at 0.05 % strength in the test on aphids, Myzus persicae (setting [4]) lay in the range of 40 to 59%.
